Measurements published in patent US20060147898A1, “Cell microchip” (NITTO DENKO CORPORATION, priority 2003, published 2006).

Tested on: rat breast cancer cell MTF7
Experiment: Action of 5ALA on MTF7 cells in the cell microchip (fluorescence and growth after Ar ion laser irradiation)
Type: cell-based
Procedure: The cell microchip prepared in Example 1 was used to examine the action of […] (5ALA) on rat breast cancer cell MTF7 according to a method described in Journal of Japan Society for Laser Surgery and Medicine, Vol. 17, No. 1, pp. 1-10 (1996).
MTF7 was provided by Dr. Stephan P. Tomasovic, M. D. Anderson Cancer Center, […], US. MTF7 was proliferated in an a-MEM medium (Sigma Corporation) supplemented with 10% fetal calf serum (FCS) in an incubator for cell culture (37° C. in 5% CO2 under humidity).
The cell microchip (FIG. 4) prepared in Example 1 was placed in a 90 mmf Petri dish, and the flow channel (A) 33, flow channel (B) 34 and flow channel (C) 35 were filled with the above medium. […]
Then the cell microchip wherein the MTF7 cells had been proliferated was removed from the Petri dish, and the above medium was injected via a micro pump into the liquid reservoir 37 of the flow channel (A) 33, and while the above medium containing 5ALA manufactured by Sigma Corporation) at various concentrations (25, 50, 100, 200 and 400 mg/ml) was injected into the liquid reservoir 37 of the flow channel (B) 34, the cells were observed under a fluorescence microscope equipped with the incubator. […] The cells into which the 5ALA-containing medium had not been injected emitted no fluorescence.

SMILES: NCC(=O)CCC(=O)O [5ALA, d-aminolevulinic acid]
- emission of fluorescence under a fluorescence microscope (MTF7 cells at 3-pronged junction, medium containing 5ALA at 25, 50, 100, 200 and 400 mg/ml, irradiated with Ar ion laser at 488 nm, 200 mW): emission of fluorescence was observed
- cell growth / survival on continued culture after laser irradiation (MTF7 cells emitting fluorescence (5ALA-containing medium), observed with time under a microscope after Ar ion laser irradiation at 488 nm): terminated their growth and fell eventually into death
